One may read the IC50 as the concentration at which inhibition is half-maximal. Lower therefore signals higher potency. What is called viability is a read-out of living cells in per cent, often relative to untreated cells.

Structures are written as SMILES. Entries after “also recorded” stand apart in the source; their conditions may differ. Read-outs that look alike come from different tables or passages of the source. Bounds are passed on as bounds.

For one data set, the system named is HPV16 pseudoviruses. Nature of the data set: microbe, parasite or virus in culture. Type of data set: cell-based. Conditions: Human papillomavirus 16, HEK-293T, 48 h. The gist of the method: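 Viability was read by CellTiter Glo luminescence on the same wells used for the SEAP infection read-out, after 48 hrs further incubation.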
The next data set relates to HPV11 pseudoviruses. Nature of the data set: HPV11 pseudovirus infection in HaCaT cells. Type of data set: cell-based. The protocol: (§1) FIG. 4. Compounds 13 and 14 can inhibit infection by multiple anogenital HPVs. Shown are results from infection experiments in HaCaT cells monitoring the efficiency of infection by HPV16, HPV11 and HPV31 pseudovirus carrying the firefly luciferase gene in the absence (0 μM, vehicle only) or increasing concentrations (0.1 to 100 μM) of Compound 13 or 14. The Y axis is the relative efficiency of infection (squares) or cell viability (circles) as a function of drug concentration (X axis). All data points represent the average of values from triplicate samples. […] Data for HPV16 is the also plotted in FIG. 2.
(§2) Compounds 13 and 14: inhibition of infection by multiple papillomavirus genotypes. The goal of this study is to identify compounds that inhibit all sexually transmitted HPVs. For this reason, we monitored the ability of Compounds 13 and 14 to inhibit infection of two additional papillomavirus pseudoviruses that were generated using the capsid proteins of two other sexually transmitted HPVs, high risk HPV31 and low risk HPV11. […]
(§3) At 4 hours prior to exposure of cell to pseudoviruses, compounds were added to plates in 1% DMSO final concentration at the indicated amounts. […] Cell viability was assessed in parallel plates by Luminescent Cell Viability Assay (Promega Cat. #G7571).

A further data set has as its system HPV31 pseudoviruses. The experiment in a line: HPV31 pseudovirus infection in HaCaT cells. In kind it is cell-based. The protocol: as §1, §2, §3
For another data set, the system named is HPV16 virus. Nature of the data set: Wild type HPV16 infection in 293T cells, early viral gene expression by real time PCR. The conditions noted are these: 5 to 10 μM (FIG. 3: 10 μM), 48 hours post infection. In kind it is cell-based. The method, then: FIG. 3. Inhibition of infection by HPV 16 virus. Shown is the relative efficiency of infection by HPV16 virus in 293T cells as scored by quantifying early viral transcription using real time PCR for E2 (dark grey bars), E5 (white bars) and E7 (light grey bars) containing mRNAs at 48 hours post-infection in the absence (DMSO—vehicle only, values set at 100%) or the presence of the indicated compound (10 μM concentration). Data points shown are the average of triplicate sample values. The dotted line indicates the normalized value for no drug (set as 100% infection value).
The 21 selected compounds were also tested for their ability to inhibit infection by bonafide HPV16 in 293T cells by measuring early viral gene expression by real time PCR at 48 hours post infection (FIG. 3) after treatment of the cell with 5 to 10 μM of each compound. Consistently with the data of reporter gene assays, HPV early gene expression was inhibited by Compounds 4, 13, 14, 18 and 20. Given the large differences in IC50 and CD50, and the reproducible capacity to inhibit infection by HPV16 pseudovirus and HPV16 virus in different cell types, Compounds 13 and 14 were selected for further analysis.
After 2 day infection, total RNA was isolated from infected cell lysate and treated with DNase I (Promega) as previously. (Pyeon, D. et al., Establishment of human papillomavirus infection requires cell cycle progression, PLos Pathog. 2009 February; 5(2):e1000318. Epub 2009 Feb. 27). Complementary DNA (cDNA) was synthesized from the normalized total RNA with the SuperScript cDNA synthesis kit (Invitrogen). All oligonucleotide primers (0.5 μM) for PCR are previously published (Pyeon D. et al., Production of infectious human papillomavirus independently of viral replication and epithelial cell differentiation, Proc. Nat'l Acad. Sci. USA, 2005 Jun. 28; 102(26):9311-6, Epub 2005 Jun. 15) or listed in Table 2.
Conventional PCR was performed with Taq DNA polymerase (Promega) and the following cycle: denaturation at 94° C. for 5 min, 42 cycles of 94° C. for 30 sec., 55° C. for 1 min., and 72° C. for 1 min., followed by extension at 72° C. for 7 min. Final products were analyzed by 1% agarose gel electrophoresis and ethidium bromide staining. Quantitative RT-PCR was performed using QuantiTect SYBR green PCR kit (Qiagen) with the following cycle: denaturation at 95° C. for 5 min. and 40 cycles of 95° C. for 30 sec., 55° C. for 30 sec., and 72° C. for 30 sec.
(In general: Quantitative PCR measures a nucleic acid by following its amplification.)

The subject of a further data set is HPV16 pseudovirus. Nature of the data set: Luciferase assay: HPV16 pseudovirus with renilla luciferase reporter (HPV16wpA-RL). The conditions noted are these: renilla luciferase reporter behind HPV16 promoter. (A reporter such as luciferase makes a cellular process visible.)
Data set [1] can be described thus: in vitro. The conditions noted are these: human.
Data set [2] can be described thus: in vitro. Conditions: human. The source holds these as a separate data set.
Method: The protocol for the secondary screen was identical to that of the primary screen with the exception that all volumes were scaled up by a factor of four. RL activity was measured using the Renilla Luciferase Assay System (Promega).
[3] abbreviates: read-out: Infectivity (SEAP Activity), 3 μM HTS standard concentration, 293T cells, 48 hrs.
Where [4] appears, read: read-out: Infectivity vs. viability, 3 μM HTS standard concentration, ratio infectivity/viability.
[5] abbreviates: read-out: Primary HTS SEAP vs Viability, Table 2, first pair of columns (c2).
Where [6] appears, read: read-out: Primary HTS SEAP vs Viability, Table 2, second pair of columns (c4).

As to `CCCn1c2ccccc2c2nnc(SC(CC)C(=O)Nc3ccc(Cl)cn3)nc21` (stereo not drawn) [Compound 13, N-(5-chloro-2-pyridinyl)-2-[(5-propyl-5H-[1,2,4]triazino[5,6-b]indol-3-yl)thio]butanamide], the activity at 3 µM worked out at 21.8% in the data set on HPV16 pseudoviruses (setting [3]), 21.4% in the data set on HPV16 pseudoviruses (setting [4]), 8.25% in the data set with HPV16 pseudoviruses (setting [5]) and 35.4% with HPV16 pseudoviruses (setting [6]). Further, the IC50 in the data set with HPV11 pseudoviruses is less than 100 nM; in the data set with HPV31 pseudoviruses it was 150 nM. For the same compound, the “Inhibition of HPV16 early gene expression (E2, E5, E7 mRNAs)” value with HPV16 virus was “reproducible and significant inhibition; also recorded: inhibited”. In the data set with HPV16 pseudovirus, the “Luciferase assay RL % Average” value is 150.17%.
As to `Cc1cc(C(c2ccc(F)cc2)c2cc(C)c(NC(=O)c3ccccc3)c(C)c2)cc(C)c1NC(=O)c1ccccc1` [Compound 14, N,N′[[(4-fluorophenyl)methylene]bis(2,6-dimethyl-4,1-phenylene)]dibenzamide], the activity at 3 µM worked out at 51% in the data set on HPV16 pseudoviruses (setting [3]), 46.5% in the data set on HPV16 pseudoviruses (setting [4]), 65.4% in the data set with HPV16 pseudoviruses (setting [5]) and 36.6% in the data set with HPV16 pseudoviruses (setting [6]). The IC50 with HPV11 pseudoviruses and in the data set on HPV31 pseudoviruses was less than 100 nM throughout. For the same compound, in the data set on HPV16 virus, the “Inhibition of HPV16 early gene expression (E2, E5, E7 mRNAs)” value was “reproducible and significant inhibition; also recorded: inhibited”. Further, the viability at 52 h, 3.3 μM in the data set “in vitro [1]” and in the data set “in vitro [2]” was 106% each time. Besides, the “Luciferase assay RL % Average” value with HPV16 pseudovirus is on record as 37.54%.
